# Calls of active or inactive are those of the source. How the calls were made is not given here.
# Test system: rodent carcinogenicity bioassays, tumor incidence
# Assay: CCRIS carcinogenicity studies
# How it was run: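 NCI-built, expert-reviewed records of carcinogenicity and related test outcomes (mutagenicity, tumor promotion/inhibition) compiled from published and report sources, historical span 1985-2011, not updated.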
structure (smiles),measurement,setting,value
COc1cc(OC)nc(Oc2cccc(Oc3nc(OC)cc(OC)n3)c2C(=O)O)n1,carcinogen call,"Species: Mouse, Strain/Sex: B6C3F1/Female (50/sex/dose), Route: Oral, Dose: 0, 10, 100, 2500, 5000 ppm in diet for 104 wk, Dose: 0, 10, 100, 2500, 5000 ppm in diet for 104 wk",inactive; negative; purity 98.4%; interim sacrifices of 10 additional animals/sex/dose at
same,carcinogen call,"Species: Mouse, Strain/Sex: B6C3F1/Male (50/sex/dose), Route: Oral, Dose: 0, 10, 100, 2500, 5000 ppm in diet for 104 wk, Dose: 0, 10, 100, 2500, 5000 ppm in diet for 104 wk",inactive; negative; purity 98.4%; interim sacrifices of 10 additional animals/sex/dose at
same,carcinogen call,"Species: Rat, Strain/Sex: F344/Female (48/sex/dose), Route: Oral, Dose: 0, 20, 200, 3000, 10000 ppm in diet for 104 wk, Dose: 0, 20, 200, 3000, 10000 ppm in diet for 104 wk",inactive; negative; purity 97.2%; interim sacrifices of 10 additional animals/sex/dose at
same,carcinogen call,"Species: Rat, Strain/Sex: F344/Male (48/sex/dose), Route: Oral, Dose: 0, 20, 200, 3500, 7000 ppm in diet for 104 wk, Dose: 0, 20, 200, 3500, 7000 ppm in diet for 104 wk",inactive; negative; purity 97.2%; interim sacrifices of 10 additional animals/sex/dose at
CC(=O)O[C@]1(C(C)=O)CC[C@H]2[C@@H]3C=C(Cl)C4=CC(=O)[C@@H]5C[C@@H]5[C@]4(C)[C@H]3CC[C@@]21C,carcinogen call,"Species: MOUSE, Strain/Sex: C57BL/FEMALE, Route: ORAL, Dose: 0, 800 PPM IN DIET FOR 97 WK (STUDY DURATION: 97 WK), Tumor Site: Type of Lesion: LIVER: HEPATOCELLULAR ADENOMA, HEPATOCELLULAR CARCINOMA",active; positive
same,carcinogen call,"Species: MOUSE, Strain/Sex: C57BL/MALE, Route: ORAL, Dose: 0, 800 PPM IN DIET FOR 104 WK (STUDY DURATION: 104 WK), Tumor Site: Type of Lesion: LIVER: HEPATOCELLULAR ADENOMA, HEPATOCELLULAR CARCINOMA",active; positive
same,carcinogen call,"Species: RAT, Strain/Sex: WISTAR/MALE, Route: GAVAGE, Dose: 0, 50 MG/KG IN TAP WATER 1/D FOR 21 D (STUDY DURATION: 79 WK)",inactive; negative
CCn1cc(C(=O)O)c(=O)c2cc3c(cc21)OCO3,carcinogen call,"Species: MOUSE, Strain/Sex: ICR/FEMALE, Route: ORAL, Dose: 0, 50, 150, 500 PPM IN DIET FOR 78 WK (STUDY DURATION: 78 WK), Dose: 0, 50, 150, 500 PPM IN DIET FOR 78 WK (STUDY DURATION: 78 WK)",inactive; negative
same,carcinogen call,"Species: MOUSE, Strain/Sex: ICR/MALE, Route: ORAL, Dose: 0, 50, 150, 500 PPM IN DIET FOR 78 WK (STUDY DURATION: 78 WK), Dose: 0, 50, 150, 500 PPM IN DIET FOR 78 WK (STUDY DURATION: 78 WK)",inactive; negative
same,carcinogen call,"Species: RAT, Strain/Sex: WISTAR/FEMALE, Route: ORAL, Dose: 0, 30, 100, 300, 1000 PPM IN DIET FOR 104 WK (STUDY DURATION: 104 WK), Dose: 0, 30, 100, 300, 1000 PPM IN DIET FOR 104 WK (STUDY DURATION: 104 WK)",inactive; negative
same,carcinogen call,"Species: RAT, Strain/Sex: WISTAR/MALE, Route: ORAL, Dose: 0, 30, 100, 300, 1000 PPM IN DIET FOR 104 WK (STUDY DURATION: 104 WK), Dose: 0, 30, 100, 300, 1000 PPM IN DIET FOR 104 WK (STUDY DURATION: 104 WK), Tumor Site: Type of Lesion: TESTIS: BENIGN LEYDIG CELL TUMOR",active; positive
NNc1ccc(C(=O)O)cc1,carcinogen call,"Species: MOUSE, Strain/Sex: STRAIN-A/FEMALE, Route: ORAL, Dose: 0, 1000 PPM IN DRINKING WATER FOR 26 WK (STUDY DURATION: 26 WK)",inactive; negative
O=[N+]([O-])c1cc([N+](=O)[O-])c2ccc3cccc4ccc1c2c43,carcinogen call,"Species: RAT, Strain/Sex: STRAIN CD/FEMALE, Route: INTRAGASTRIC, Dose: 10 UMOL IN DMSO 3/WK FOR 4 WK (TOTAL DOSE: 16 UMOL/RAT) (STUDY DURATION: 78 WK), Tumor Site: Type of Lesion: ADRENAL GLAND: CORTICAL ADENOMA, PITUITARY GLAND: CARCINOMA",active; positive
same,carcinogen call,"Species: RAT, Strain/Sex: STRAIN CD/FEMALE, Route: INTRAPERITONEAL, Dose: 0, 10 UMOL IN DMSO 3/WK FOR 4 WK (TOTAL DOSE: 16 UMOL/RAT) (STUDY DURATION: 78 WK), Tumor Site: Type of Lesion: MAMMARY GLAND: ADENOCARCINOMA, FIBROADENOMA, ADENOMA",active; positive
same,carcinogen call,"Species: RAT, Strain/Sex: STRAIN-CD/FEMALE, Route: SUBCUTANEOUS, Dose: 0, 6.3 UMOL (TOTAL DOSE) ADMINISTERED OVER 8 WK BEGINNING ON DAY OF BIRTH (STUDY DURATION: 67 WK), Tumor Site: Type of Lesion: INTEGUMENTARY SYSTEM: MALIGNANT FIBROUS HISTIOCYTOMA",active; positive
O=P(=O)O,carcinogen call,"Species: RAT, Strain/Sex: F344/FEMALE, Route: INHALATION, Dose: 0, 1, 5, 25 MG/M3 6 HR/D 5 D/WK FOR 24 MO (STUDY DURATION: 24 MO), Dose: 0, 1, 5, 25 MG/M3 6 HR/D 5 D/WK FOR 24 MO (STUDY DURATION: 24 MO)",inactive; negative
same,carcinogen call,"Species: RAT, Strain/Sex: F344/MALE, Route: INHALATION, Dose: 0, 1, 5, 25 MG/M3 6 HR/D 5 D/WK FOR 24 MO (STUDY DURATION: 24 MO), Dose: 0, 1, 5, 25 MG/M3 6 HR/D 5 D/WK FOR 24 MO (STUDY DURATION: 24 MO)",inactive; negative
CCN(CC(=O)O)N=O,carcinogen call,"Species: MOUSE, Strain/Sex: BALB/C/MALE, Route: ORAL, Dose: 0, 1000, 2000 PPM IN DRINKING WATER FOR 2 WK (STUDY DURATION: 52 WK), Dose: 0, 1000, 2000 PPM IN DRINKING WATER FOR 2 WK (STUDY DURATION: 52 WK)",inactive; negative
same,carcinogen call,"Species: RAT, Strain/Sex: WISTAR/MALE, Route: ORAL, Dose: 0, 1000, 2000 PPM IN DRINKING WATER FOR 2 WK (STUDY DURATION: 52 WK), Dose: 0, 1000, 2000 PPM IN DRINKING WATER FOR 2 WK (STUDY DURATION: 52 WK)",inactive; negative
Nc1ccc(N=Nc2ccccc2)c(N)c1,carcinogen call,"Species: MOUSE, Route: ORAL, Tumor Site: Type of Lesion: HEMATOPOIETIC SYSTEM (LEUKEMIA), LYMPHATIC SYSTEM: LYMPHOMA, LIVER, Tumor Site: Type of Lesion: HEMATOPOIETIC SYSTEM (LEUKEMIA), LYMPHATIC SYSTEM: LYMPHOMA, LIVER",active; positive
NC(=S)Nc1ccccc1,carcinogen call,"Species: MOUSE, Strain/Sex: B6C3F1/FEMALE, Route: ORAL, Dose: 0, 150, 300 PPM IN DIET, Dose: 0, 150, 300 PPM IN DIET",inactive; negative
same,carcinogen call,"Species: MOUSE, Strain/Sex: B6C3F1/MALE, Route: ORAL, Dose: 0, 150, 300 PPM IN DIET, Dose: 0, 150, 300 PPM IN DIET",inactive; negative
same,carcinogen call,"Species: RAT, Strain/Sex: F344/FEMALE, Route: ORAL, Dose: 0, 60, 120 PPM IN DIET, Dose: 0, 60, 120 PPM IN DIET",inactive; negative
same,carcinogen call,"Species: RAT, Strain/Sex: F344/MALE, Route: ORAL, Dose: 0, 60, 120 PPM IN DIET, Dose: 0, 60, 120 PPM IN DIET",inactive; negative
COC(=O)C(C)(C)Oc1ccc(-c2ccc(Cl)cc2)cc1,carcinogen call,"Species: RAT, Strain/Sex: F344/MALE, Route: ORAL, Dose: 0.1% IN DIET FOR 75 WK, Tumor Site: Type of Lesion: LIVER: HEPATOCELLULAR CARCINOMA",active; positive
CCOCCc1c(-c2ccccc2)nc(N)n2ncnc12,carcinogen call,"Species: RAT, Strain/Sex: STRAIN-CD/FEMALE, Route: ORAL, Dose: 0, 50, 150, 450 MG/KG/D IN DIET FOR 97 WK (STUDY DURATION: 105 WK), Dose: 0, 50, 150, 450 MG/KG/D IN DIET FOR 97 WK (STUDY DURATION: 105 WK), Tumor Site: Type of Lesion: LIVER: ADENOMA OR CARCINOMA, MAMMARY GLAND: ADENOMA OR CARCINOMA, THYROID GLAND: ADENOMA, Tumor Site: Type of Lesion: LIVER: ADENOMA OR CARCINOMA, MAMMARY GLAND: ADENOMA OR CARCINOMA, THYROID GLAND: ADENOMA",active; positive
same,carcinogen call,"Species: RAT, Strain/Sex: STRAIN-CD/MALE, Route: ORAL, Dose: 0, 50, 150, 450 MG/KG/D IN DIET FOR 97 WK (STUDY DURATION: 105 WK), Dose: 0, 50, 150, 450 MG/KG/D IN DIET FOR 97 WK (STUDY DURATION: 105 WK), Tumor Site: Type of Lesion: LIVER: ADENOMA OR CARCINOMA, THYROID GLAND: ADENOMA OR CARCINOMA",active; positive
N#CCCC(Br)(C#N)CBr (stereo unspecified),carcinogen call,"Species: Mouse, Strain/Sex: B6C3F1/Female (50/Group), Route: Dermal, Dose: 0, 0.6, 2, 6 mg/kg in 95% ethanol on clipped area of skin 5 d/wk for 2 yr, Dose: 0, 0.6, 2, 6 mg/kg in 95% ethanol on clipped area of skin 5 d/wk for 2 yr",inactive; negative
same,carcinogen call,"Species: Mouse, Strain/Sex: B6C3F1/Male (50/Group), Route: Dermal, Dose: 0, 0.6, 2, 6 mg/kg in 95% ethanol on clipped area of skin 5 d/wk for 2 yr, Dose: 0, 0.6, 2, 6 mg/kg in 95% ethanol on clipped area of skin 5 d/wk for 2 yr",inactive; negative
same,carcinogen call,"Species: Rat, Strain/Sex: F344/N / Female (50/Group), Route: Dermal, Dose: 0, 2, 6, 18 mg/kg in 95% ethanol on clipped area of skin 5 d/wk for 2 yr, Dose: 0, 2, 6, 18 mg/kg in 95% ethanol on clipped area of skin 5 d/wk for 2 yr",inactive; negative
same,carcinogen call,"Species: Rat, Strain/Sex: F344/N / Male (50/Group), Route: Dermal, Dose: 0, 2, 6, 18 mg/kg in 95% ethanol on clipped area of skin 5 d/wk for 2 yr, Dose: 0, 2, 6, 18 mg/kg in 95% ethanol on clipped area of skin 5 d/wk for 2 yr",inactive; negative
